The text below walks through data of US20050025830A1, “Drug delivery device comprising an active compound and method for releasing an active compound from a drug delivery device” (Technische Universiteit Eindhoven, priority 2003, published 2005).

Data set [1] in a line: Release of active compound from pressed polymer disc into physiological buffer in shaking bath at 20° C. and 50° C. In kind it is physicochemical. The conditions noted are these: p(BMA-MMA) disc with 75 mol % pBMA, ibuprofen 5% (m/m).
The nature of data set [2]: Concentration of ibuprofen in blood after subcutaneous implantation of disc and alternating ultrasound irradiation. In kind it is in vivo. The conditions noted are these: p(BMA-MMA) disc, ibuprofen 3% (m/m), Lewis rat. From the text: A pressed circular disc of p(BMA-MMA) with ibuprofen incorporated in the matrix with a mass ratio of 3% (m/m), as described in example 1, was implanted subcutaneously in a Lewis rat. On both sides of the disc a thermocouple was implanted to continuously measure the temperature at the surface of the disc. One hour after implantation the disc was irradiated perpendicularly to the surface with a beam of ultrasonic sound with a power of 0.7 W, a frequency of 10^6 Hz (1 MHz), and a duty cycle of 70%, the probe for generating the ultrasound touching the skin of the rat. A standard physiotherapeutic hydrogel was used in between the skin and the probe. The irradiation with ultrasonic sound was applied in an alternating manner, periods of irradiation of 30 minutes being alternated with periods of 30 minutes without irradiation.
Blood samples were taken each 10 minutes during irradiation and each 20 minutes in the periods without irradiation to determine concentration of ibuprofen in the blood stream as a function of time. After 30 minutes irradiation the concentration of ibuprofen was 0.9 μg/ml, after irradiation the plasma concentration went below 0.01 μg/ml.

Data set [3] is described as follows: Ultrasound-induced release of ibuprofen from polymer disc into physiological buffer. The conditions noted are these: PLAGA 50/50 disc, ibuprofen 10% (m/m). The data set is classed as physicochemical. The method, then:
An object consisting of a pressed circular disc with a diameter of 2 cm and thickness of 2 mm was provided with a thermocouple in the middle and was then placed in a holder in a vessel containing 0.5 litre physiological buffer. […] The PLAGA was purchased from Purac Biochem, The Netherlands. The glass transition temperature of the matrix of poly(lactic acid-co-glycolic acid) used was 12.7° C. (as compared to Example 1 where a Tg of 43° C. is disclosed. This decrease of the Tg is the result of a higher loading of ibuprofen). The disc was irradiated perpendicularly to the surface with a beam of ultrasonic sound with a power of 4 W and a frequency of 10^6 Hz (1 MHz), the probe for generating the ultrasound being 28 mm away from the disc. The speed of the release of ibuprofen into the physiological buffer was determined as a function of time. Both the temperature of the buffer and the temperature in the disc were measured continuously. The irradiation with ultrasonic sound was applied in an alternating manner, periods of irradiation of 120 minutes being alternated with periods of 60 minutes without irradiation.

For the compound `CC(C)Cc1ccc(C(C)C(=O)O)cc1` (stereo not drawn) [ibuprofen], the “release rate of ibuprofen into the physiological buffer” value in data set [1] (20° C.) is given as 0.36 nmol/h; in data set [1] (50° C.) it was 10 nmol/h. The “plasma concentration of ibuprofen” value in data set [2] (after irradiation (period without irradiation)) is reported as “below 0.01 μg/ml”. Further, in data set [2] (blood, sc, after 30 minutes irradiation (0.7 W, 1 MHz, duty cycle 70%), read-out: concentration of ibuprofen in the blood stream), the concentration at 30 min was 900 ng/mL. Moreover, in data set [3], the “release of ibuprofen after stopping the irradiation” value was “fell virtually immediately to the base value”. The “speed of release of ibuprofen from the disc” value in data set [3] (without irradiation (base value), 8° C.) is listed as “less than 1×10^−7 gram/minute”.
